The values below come from patent US8304444B2, “Pyrazole carboxylic acid amides useful as microbiocides” (Syngenta Crop Protection, LLC, priority 2007, dated 2012).

Structures are written as SMILES.

As usually defined, the inhibition is the share of the control response that was lost under treatment. Read a high inhibition as a response far below the control.

Common to all, as to type: cell-based
Experiment [1] deals with Septoria tritici. Kind of experiment: Action against Septoria tritici, fungal growth assay. The following applies: Zymoseptoria tritici; 0.002% active ingredient, PDB broth, 24° C., photometric after 72 hrs. Here is the method: (§1) Action Against Septoria tritici—Fungal Growth Assay Conidia of the fungus from cryogenic storage are directly mixed into nutrient broth (PDB potato dextrose broth). After placing a (DMSO) solution of the test compounds (0.002% active ingredient) into a microtiter plate (96-well format) the nutrient broth containing the fungal spores is added. The test plates are incubated at 24° C. and the inhibition of growth is determined photometrically after 72 hrs. The activity of a compound is expressed as fungal growth inhibition (0=no growth inhibition, ratings of 80% to 99% mean good to very good inhibition, 100%=complete inhibition). Compounds 1.01, 1.07, 1.14, 1.15, 1.76 and 2.01 show very good activity in this test (≦80% inhibition).

Experiment [2] concerns Mycosphaerella arachidis. Kind of experiment: Action against Mycosphaerella arachidis, fungal growth assay. The conditions noted are these: 0.002% active ingredient, PDB broth, 24° C., photometric after 6-7 days. Here is the method:
Action Against Mycosphaerella arachidis (Early Leaf Spot of Groundnut; Cercospora arachidicola [anamorph])—Fungal Growth Assay Conidia of the fungus from cryogenic storage are directly mixed into nutrient broth (PDB potato dextrose broth). After placing a (DMSO) solution of the test compounds (0.002% active ingredient) into a microtiter plate (96-well format) the nutrient broth containing the fungal spores is added. The test plates are incubated at 24° C. and the inhibition of growth is measured photometrically after 6-7 days. The activity of a compound is expressed as fungal growth inhibition (0=no growth inhibition, ratings of 80% to 99% mean good to very good inhibition, 100%=complete inhibition). Compounds 1.01, 1.14 and 1.15 show very good activity in this test (≦80% inhibition). Compounds 1.07 and 2.01 show good activity in this test (≦50% inhibition).

Experiment [3] deals with Monographella nivalis. Kind of experiment: Action against Monographella nivalis (snow mould), fungal growth assay. The following applies: 0.002% active ingredient, PDB broth, 24° C., photometric after 72 hrs. The method, then:
as §1, with “Monographella nivalis (Anamorph: Fusarium nivale, Microdochium nivale; Snow Mould)—Fungal” for “Septoria tritici—Fungal”, “DMSO-solution” for “(DMSO) solution”, “measured” for “determined”, “hrs” for “hrs. The activity of a compound is expressed as fungal growth inhibition”, “1.14” for “1.01, 1.07, 1.14, 1.15, 1.76”, “1.15” for “2.01”

Experiment [4] deals with Pseudocercosporella herpotrichoides var. acuformis. Kind of experiment: Action against Pseudocercosporella herpotrichoides var. acuformis (eyespot/cereals), fungal growth assay. The conditions noted are these: Oculimacula yallundae; 0.002% active ingredient, PDB broth, 24° C., photometric after 72 hrs. The method, then: as §1, with “Pseudocercosporella herpotrichoides var. acuformis (Eyespot/Cereals)—Fungal” for “Septoria tritici—Fungal”, “1.14” for “1.07, 1.14, 1.15, 1.76”, “1.15” for “2.01”, “(≦30%” for “(≦80%”

In experiment [1], `CONC(c1ccc(Cl)cc1Cl)C(C)NC(=O)c1cn(C)nc1C(F)F` (centres unmarked) [Compound 1.76, 3-difluoromethyl-1-methyl-1H-pyrazole-4-carboxylic acid [2-(2,4-dichlorophenyl)-2-methoxyamino-1-methyl-ethyl]-amide] gave an inhibition at 0.002 % strength of at most 80%.

Take `COC(c1ccc(Cl)cc1Cl)C(C)NC(=O)c1cn(C)nc1C(F)F` (centres unmarked) [Compound 1.14, 3-difluoromethyl-1-methyl-1H-pyrazole-4-carboxylic acid [2-(2,4-dichlorophenyl)-2-methoxy-1-methyl-ethyl]-amide]: the inhibition at 0.002 % strength in experiment [2] was at most 80%; in experiment [1], at most 80%; in experiment [3] it was at most 80%; in experiment [4] it was at most 30%.
